# In US12427134B2, “Methods of reducing the risk of cardiovascular events in a subject with atrial fibrillation and/or atrial flutter” (priority 2019, dated 2025):
# How the values were obtained:
# [1] = tested on: hypertriglyceridemic patients with cardiovascular disease or at high risk for cardiovascular disease; conditions: human, in vivo
# Source text: Compliance Control: Unless clear contraindications arise, patients were strongly encouraged to adhere to their treatment regimen with the study drug for the duration of the trial. Any interruptions of therapy were, if possible, brief (e.g., <4 weeks) and only for clinically indicated reasons, such as adverse events. Discontinuations were discouraged as much as possible. Any discontinuations were based on compelling clinical reasons. For every patient, an assessment of compliance to the study drug treatment regimen was obtained at each scheduled visit. Study medication was dispensed in amounts exceeding the amount required for the study. Patients were instructed to return all unused study medication at the next visit. Compliance to the study drug regimen was evaluated at each visit by counting unused capsules. Discrepancies were evaluated and discussed with each patient to assess compliance. […] At the end of the study, the final study medication compliance was determined by unused capsule count. […]
# Occurrence of an outcome event according to the judgment of the investigator was not considered a valid reason for study drug discontinuation. Patients whose treatment with study medication was discontinued early, and had not withdrawn consent, stayed in the study and were monitored until the end of the study. […]
# [2] = tested on: hypertriglyceridemic patients with cardiovascular disease or at high risk for cardiovascular disease; assay: REDUCE-IT: post hoc control group response analyses (placebo patients with biomarker increase vs no change/decrease); format: in vivo, human
# Source text: The objective of the following example was to perform a control group analysis of the ischemic events in patients from the REDUCE-IT trial, as described in Example 1. The study focused on exploring if outcomes were affected by possible malabsorption. If mineral oil in the placebo might have negatively affected statin absorption in some patients, this could have contributed to differences in outcomes between the groups.
smiles,measurement,setting,value
"CC/C=C\C/C=C\C/C=C\C/C=C\C/C=C\CCCC(=O)OCC [AMR101, eicosapentaenoic acid ethyl ester]",Early study drug discontinuation: adverse event,[1],9.2%
same,"Key secondary endpoint, HR AMR101 group versus placebo patients with an increase in LDL-C",[2]; LDL-C at one year,0.80
same,"Key secondary endpoint, HR AMR101 group versus placebo patients with no change or a decrease in LDL-C",[2]; LDL-C at one year,0.74
same,"Primary endpoint, HR AMR101 group versus placebo patients with an increase in LDL-C",[2]; LDL-C at one year,0.79
same,"Primary endpoint, HR AMR101 group versus placebo patients with no change or a decrease in LDL-C",[2]; LDL-C at one year,0.79
same,"Key secondary endpoint, HR AMR101 group versus placebo patients with an increase in hsCRP",[2]; hsCRP at two years,0.83
same,"Key secondary endpoint, HR AMR101 group versus placebo patients with no change or a decrease in hsCRP",[2]; hsCRP at two years,0.85
same,"Primary endpoint, HR AMR101 group versus placebo patients with an increase in hsCRP",[2]; hsCRP at two years,0.79
same,"Primary endpoint, HR AMR101 group versus placebo patients with no change or a decrease in hsCRP",[2]; hsCRP at two years,0.83
